Measurements taken from EP2557075A1, “New triazene compounds for treating cancer” (Trin Therapeutics GmbH, priority 2011, dated 2013).
pIC50: −log10 of the molar value. “Also recorded” adds a separate entry of the source. Like-named read-outs stand apart in the source and are kept apart here.

Legend:
MDA-MB231 [1] = assay: IC50 of triazenes in MDA-MB231 cell line (Experiment 3); type: cell-based; conditions: Homo sapiens, MDA-MB-231; IC50 für die MDA-MB231 gemäß Experiment 3; used as incubation concentration for PBC
Description: (§1) Die nachfolgenden Experimente 3 und 4 zeigen, dass die erfindungsgemäßen neuen Triazenverbindungen eine vergleichbare Anti-Tumorwirkung (IC50) in zahlreichen Krebszelllinien wie der HepG2 (Leber), HCT8 (Darm), DU-145 (Prostata), MCF-7 und MDA-MB-231 (Brust) und MiaPaca-2 (Bauchspeicheldrüse) bei bis zu 100fach niedrigeren Konzentrationen zeigen als vergleichbare Triazene wie DTIC, TMZ oder Substanzen wie sie in der WO 2009/004060 und der DE 1 7931 1 5 beschrieben sind.
(§2) Verschiedene Triazene wie erfindungsgemäße Verbindungen nach Beispiel 1, DTIC, TMZ sowie Verbindungen nach Präparat 2 und 5 (entsprechend Verbindungen nach Präparat 2 und Beispiel 2a jeweils der WO 2009/004060) sowie Verbindungen nach Beispiel 33 der DE1793115 wurden in DMSO bzw. Wasser gelöst.
Periphäre Blutzellen (PBC) werden jeweils mit der IC50 für die MDA-MB231 gemäß Experiment 3 der entsprechenden Substanzen inkubiert. Es wird gezeigt, dass die erfindungsgemäße Verbindung nach Beispiel 1 nicht mehr DNA-Schädigungen in den PBC erzeugt als eine Negativkontrolle, […]

HL-60 [2] = assay: Growth inhibition (IC50) in leukaemic HL-60 cells (Experiment 7); type: cell-based; conditions: for pIC50: Homo sapiens, HL-60, 24 Stunden
Description: Hämatologische Zellen (CEM, HL-60) wurden für 24 Stunden mit unterschiedlichen Dosen verschiedener Triazenverbindungen inkubiert, um die IC50 zu bestimmen.

MDA-MB231 [3] = assay: Cell cycle analysis by flow cytometry in MDA-MB231 (Experiment 9); type: cell-based; conditions: MDA-MB231, incubated with IC50, nach 10 bzw. 24 Stunden
Description: (§3) Die Progression durch den Zellzyklus ist charakterisiert durch die mitotische Teilung (M-Phase) und der sich anschließenden Interphase, Die Interphase gliedert sich wiederum in die G1 -, S- und G2-Phase, In der G1-Phase beginnt die Zelle zu wachsen und es liegt ein vollständiger Chromosomensatz vor. In der S-Phase erfolgt die Replikation der DNA, wodurch an ihrem Ende der zweifache Chromosomensatz vorliegt. In der G2-Phase bereitet sich die Zelle auf die mitotische Teilung vor, an dessen Ende wieder der einfache Chromosomensatz vorhanden ist. Zusätzlich zu diesen Phasen kann eine sog. sub-G1-Phase vorliegen. Diese ist charakterisiert durch fragmentierte, apoptotische Zellen, die durch degradierte DNA charakterisiert ist. In welchem Stadium sich die Zelle befindet bzw. arretiert sein kann, lässt sich mittels Durchflusszytometrie bestimmen (Brockhoff et al. 2007; Lenz et al. 2007).
(§4) Zellkulturen von MDA-MB231 bzw. HL-60 wurden mit der IC50 (MDA-MB231) bzw. IC90 (HL-60) der beiden Test-Substanzen für bis zu 72 Stunden inkubiert und auf die Zellzyklusentwicklung hin untersucht.

[4] = tested on: MCF-7, MB-231, HepG2, HCT8, DU-145; assay: IC50 of triazenes in various tumour cell lines (Experiment 3); type: cell-based
Description: as §1, §2

HL-60 [5] = assay: Cell cycle analysis by flow cytometry in HL-60 (Experiment 9); type: cell-based
Description: as §3, §4

MCF-7-Zellen = assay: Intracellular metabolisation of triazenes in MCF-7 cell culture (Experiment 1); type: in vitro ADME; conditions: MCF-7, 100nmol/ml, 100% FCS
Protocol: Es wird gezeigt, dass Verbindungen nach Beispiel 1 schneller und in größerer Menge intrazellulär metabolisiert werden als die als Vergleichssubstanzen eingesetzten Verbindungen nach Präparat 2 und 5 (entsprechend Verbindungen nach Präparat 2 und Beispiel 2a jeweils der WO 2009/004060).
Die getesteten Verbindungen wurden wie folgt gelöst: • Erfindungsgemäße Verbindung: • Beispiel 1 : in 20 mg/ml DMSO
(§5) Vergleichssubstanzen: • Präparat 2: in 50mg/ml DMSO, • Präparat 5: in 50mg/ml Wasser.
Alle drei Substanzen wurden äquimolar in einer Dosis von 100nmol/ml auf 1 x 10^7 HepG2 bzw. MCF-7-Zellen gegeben. Als Zellkulturmedium wurde 100% fötales Kälberserum (FCS) verwendet. Für den Versuch wurde der Gehalt aus Ausgangsprodukt und Metaboliten im Zellüberstand nach 1, 3 und 6 (HepG2) bzw. 1,3 und 20 Stunden (MCF-7) Inkubationszeit ermittelt. Alle drei Substanzen zeigten in Kontrollversuchen mit 100% FCS nach 40 Stunden metabolische Stabilität.

MDA-MB231 Zellen = assay: Intracellular uptake of triazenes in MDA-MB231 cells (Experiment 2); type: in vitro ADME; conditions: MDA-MB231, 50.000ng/ml, 50% FCS, 2, 3,5 und 20 Stunden
Protocol: (§6) Es wird gezeigt, dass Verbindungen nach Beispiel 1 schneller und in größerer Menge intrazellulär aufgenommen werden als die als Vergleichssubstanzen eingesetzten Verbindungen nach Präparat 2 und 5 (entsprechend Verbindungen nach Präparat 2 und Beispiel 2a jeweils der WO 2009/004060).
(§7) Die getesteten Verbindungen wurden wie folgt gelöst: • Erfindungsgemäße Verbindung: • Beispiel 1: in 20 mg/ml DMSO
as §5
(§8) Alle drei Substanzen wurden in einer Dosis von 50.000ng/ml auf 2 x 10^7 HepG2 und HCT-8 sowie 2 x 10^6-MDA-MB231 Zellen gegeben. Als Zellkulturmedium wurde 100% (MDA-MB231: 50%) fötales Kälberserum (FCS) verwendet. Zudem wurde bei den Versuchen mit HepG2 und HCT-8 noch 10.000ng/ml O6-Benzylguanin zugesetzt. Für den Versuch wurde die intrazelluläre Konzentration von Ausgangsprodukt und Metaboliten nach 2, 4 und 20 (HepG2), 2 und 3,5 und 20 Stunden (MDA-MB231) und 2,4, 24 und 48 Stunden (HCT-8) Inkubationszeit ermittelt. Alle drei Substanzen zeigten in Kontrollversuchen mit 100% FCS nach 40 Stunden metabolische Stabilität.

HCT-8 = assay: Intracellular uptake of triazenes in HCT-8 cells (Experiment 2); type: in vitro ADME; conditions: HCT-8, 50.000ng/ml, 10.000ng/ml O6-Benzylguanin, first two time points (2, 4 Stunden)
Protocol: as §6, §7, §5, §8

With `CN(C)N=Nc1ccc(C(=O)c2ccc(O)cc2)cc1` [Beispiel 1] as the compound, how does the IC50 (MDA-MB231 [1]) read?
The IC50 was 27.5 µM.

What about the “Wachstumshemmung in x-fach niedrigerer Konzentration” value (HL-60 [2]; CEM und HL-60, vs. Triazenverbindungen aus WO2009/004060 und Beispiel 33 aus DE 1793115) of the same compound?
Its value is ≤ 100 -fach.

And the pIC50 (HL-60 [2]; mean of Exp. 1-5, read-out: IC50 Mittelwert)?
Its pIC50 is 4.79.

And the pIC50 (HL-60 [2]; read-out: IC50 Exp. 1)?
Its pIC50 is 4.90.

And the pIC50 (HL-60 [2]; read-out: IC50 Exp. 2)?
Its pIC50 is 4.82.

And the pIC50 (HL-60 [2]; read-out: IC50 Exp. 3)?
The pIC50 was 4.62.

And the pIC50 (HL-60 [2]; read-out: IC50 Exp. 4)?
Its pIC50 is 4.80.

And the pIC50 (HL-60 [2]; read-out: IC50 Exp. 5)?
The pIC50 was 4.87.

And the Zellzyklus (MDA-MB231 [3])?
The Zellzyklus was “ausgeprägten G2 Arrest nach 10 bzw. 24 Stunden und massivem Zelltod (SubG1)”.

What about the “antitumorale Aktivität (IC50) compared with other triazenes” value [4] of the same compound?
The value was “deutlich wirksamer; also recorded: höhere antitumorale Aktivität”.

What about the “Zellen in der G1 Phase” value (HL-60 [5]; HL-60, IC90, nach 24 Stunden) of the same compound?
Its value is less than 2%.

What about the “eingesetzte Zellen tot” value (HL-60 [5]; HL-60, IC90, nach 24 Stunden) of the same compound?
Its value is roughly 40%.

And the Zellzyklus (HL-60 [5]; HL-60, incubated with IC90, nach 12 bzw. 24 Stunden)?
Its Zellzyklus is “ausgeprägten G2 Arrest”.

And the metabolisiert (MCF-7-Zellen; innerhalb von 1 Stunde)?
The metabolisiert was “mehr als der Hälfte”.

What about the metabolisiert (MCF-7-Zellen; nach 3 Stunden) of the same compound?
The metabolisiert was “vollständig metabolisiert”.

And the “intrazelluläre Konzentration vs. Vergleichssubstanzen” value (MDA-MB231 Zellen)?
The value was “deutlich schneller und in höheren Konzentrationen intrazellulär nachweisbar”.

And the “intrazelluläre Konzentration vs. Vergleichssubstanzen” value (HCT-8)?
The value was “deutlich schneller und für die ersten beiden Messpunkte auch in höherer Konzentration intrazellulär nachweisbar”.
